Source: patent publication US20190374601A1, “METHODS FOR TREATING FUNGAL INFECTIONS” (priority 2017, published 2019)
Starred links: 1 amine or outer side, 2 acyl side, 3 side chain; linkers in the order of their positions; H or OH if unused. Positions of bridges follow the written chain, without caps; N, C: chain ends. Non-standard residues stand in square brackets, D forms with d. Residues, ends and D or L forms follow the SMILES beside them. *: point of attachment. Orn(4R-OH,5R-OCH2CH2NMe3+) = C[N+](C)(C)CCO[C@@H](N[*:3])[C@H](O)C[C@H](N[*:1])C(=O)[*:2]; pTerphenylCO(4''-OnC5H11) = CCCCCOc1ccc(-c2ccc(-c3ccc(C(=O)*)cc3)cc2)cc1; hTyr(3S-OH,4S-OH) = N[C@H](C(=O)O)[C@H](O)[C@@H](O)c1ccc(O)cc1; Pro(3S-OH,4S-Me) = C[C@H]1CN[C@H](C(=O)O)[C@H]1O; Hyp = O=C(O)[C@@H]1C[C@@H](O)CN1

Legend:
Type in all cases: in vivo
T. mentagrophytes [1] = assay: Hair root invasion test (mycological evaluation), T. mentagrophytes dermatophytosis guinea pig model, different doses once weekly, Example 2; conditions: evaluated study day 12, relative to vehicle control
Description: (§1) Procedures for animal care and use, preparation of standard inoculum, and infection of the animals were carried out following the same steps as described in Example 1.
(§2) Infected guinea pigs were randomized into the following (1)-(5) groups (10 per group) (see Table 4): (1) a vehicle control (water+mannitol); (2) terbinafine 10 mg/kg PO days 1 and 8, as a positive control; (3) CD101 10 mg/kg SQ days 1 and 8; (4) CD101 20 mg/kg SQ days 1 and 8; and (5) CD101 40 mg/kg SQ days 1 and 8.
(§3) Animals were treated with CD101 SQ or PO (for terbinafine) once a week on days 1 and 8.
(§4) Study Day 1: Infect the animals with T. mentagrophytes and begin treatments.
(§5) Study Day 8: Last treatment.
(§6) Study Day 12: Clinical evaluation of the four quadrants in the marked area is done. Hair samples were obtained from each quadrant. Hairs (10 per quadrant) were planted in Potato Dextrose Agar, and incubated for 48 h for mycological evaluation. Procedures for clinical and mycological evaluations are described below.
(§7) The compounds was administered SQ or PO (0.3 mL/kg […]).
Hair samples were removed with sterile forceps from four quadrants. Ten hair samples from each quadrant were inoculated onto the corresponding quadrant on the Potato Dextrose agar plate and incubated at 30° C. for 2 days. The fungal growth at the hair root was examined under a stereomicroscope. The effectiveness of a compound in reducing the number of mycologically positive hair sample per treated group was expressed as percentage relative to the untreated control group of animals using the following formula:
where T=Positive hair in the test group, K=Positive hair in the Untreated control.

T. mentagrophytes [2] = assay: Clinical evaluation of infected skin, T. mentagrophytes dermatophytosis guinea pig model, different doses once weekly, Example 2; conditions: evaluated study day 12, relative to vehicle control
Description: as §1, §2, §3, §4, §5, §6, §7
Clinical assessment of local changes of the infected skin area was scored as follows:
1=Few slightly erythematous places on the skin
2=Well-defined redness, swelling with bristling hairs.
3=Large areas or marked redness incrustation, scaling, bald patches, ulcerated in places.
4=Partial damage to the integument and loss of hair
5=Extensive damage to the integument and complete loss of hair at the site of infection.
Any other local skin reactions were noted. The assessment of clinical evaluation in the change of scores per treatment group was expressed as percentage relative to the untreated control group of animals using the following formula:
where T=Scores in the test group. K=Scores in the untreated control

[3] = Mortality, clinical observations and body weights after subcutaneous injection in cynomolgus monkeys; conditions: 30, 60, 120 mg/kg/dose SC once every 3 days (5 doses)
Description: Dose levels were 30, 60, and 120 mg/kg/dose for Groups 2, 3, and 4, respectively. […] The dose volumes were 1.2, 0.3, 0.6, and 1.2 mL/kg spread evenly over 4, 1, 2, and 4 dose sites for Groups 1-4, respectively, on each day of dosing. The control and 120 mg/kg/dose groups each consisted of 5 males and 5 females, and the 30 and 60 mg/kg/dose groups each consisted of 3 males and 3 females.
The animals were observed twice daily for mortality and moribundity. Clinical examinations were performed once daily for at least 6 consecutive days, including the day of randomization, prior to randomization, prior to dosing, 1-2 hours postdosing, once daily on nondosing days, and once daily during the recovery period. Detailed physical examinations were performed at least weekly during the acclimation period until randomization, on the day of randomization, weekly (±2 days) during the study period, and on the day of the scheduled necropsies. […] Individual body weights were recorded weekly (±2 days). […] Clinical pathology parameters (hematology, coagulation, serum chemistry, and urinalysis) were analyzed during acclimation prior to randomization (Study Day −15), and on the day of the primary (Study Day 17) and recovery (Study Day 45) necropsies. […]

CCCCCOc1ccc(-c2ccc(-c3ccc(C(=O)N[C@H]4C[C@@H](O)[C@@H](OCC[N+](C)(C)C)NC(=O)[C@@H]5[C@@H](O)[C@@H](C)CN5C(=O)[C@H]([C@@H](C)O)NC(=O)[C@H]([C@H](O)[C@@H](O)c5ccc(O)cc5)NC(=O)[C@@H]5C[C@@H](O)CN5C(=O)[C@H]([C@@H](C)O)NC4=O)cc3)cc2)cc1 [CD101] ({pTerphenylCO(4''-OnC5H11)}-[Orn(4R-OH,5R-OCH2CH2NMe3+)]T[Hyp][hTyr(3S-OH,4S-OH)]T[Pro(3S-OH,4S-Me)]; lactam 1-C)
Percent Efficacy Mycological (T. mentagrophytes [1]; 10 mg/kg SQ days 1 and 8): 80.9% | Percent Efficacy Mycological (T. mentagrophytes [1]; 20 mg/kg SQ days 1 and 8): 82.9% | Percent Efficacy Mycological (T. mentagrophytes [1]; 40 mg/kg SQ days 1 and 8): 98.5% | Percent Efficacy Clinical (T. mentagrophytes [2]; 10 mg/kg SQ days 1 and 8): 90.5% | Percent Efficacy Clinical (T. mentagrophytes [2]; 20 mg/kg SQ days 1 and 8): 94.2% | Percent Efficacy Clinical (T. mentagrophytes [2]; 40 mg/kg SQ days 1 and 8): 98.4% | survival [3]: All animals survived to the scheduled necropsies | test article-related clinical observations and effects on body weights [3]: no test article-related clinical observations or effects on body weights
